Molecules are shown by their SMILES. Converted amounts (≈) assume the structure as drawn.

For the first data set the following is noted: 20 °C.
What is called solubility is how much of the substance goes into solution per volume. Higher therefore signals a readily soluble substance. Compound `CCOC(=O)CCCCC(=O)OCC` returned a solubility of 20.9 mM (≈ 4230 µg/mL). Still for that read-out and setting: the value for `C[C@H]1C[C@@H](OC(=O)c2ccccc2)CC(C)(C)N1` was 12 mM (≈ 2960 µg/mL); that for `CC(=O)OC(C)C` was 303 mM (≈ 30900 µg/mL). `COC(C)=O` displayed a solubility of 3280 mM (≈ 243000 µg/mL). Regarding `F[P-](F)(F)(F)(F)F.N#[N+]c1ccccc1`, the solubility is 36 mM. In turn, `CC(Cl)C(Cl)(Cl)C(O)O` (stereo not drawn) yielded a solubility of 136 mM (≈ 26300 µg/mL). Still for that read-out and setting: the value for `CCCOC(C)=O` was 185 mM (≈ 18900 µg/mL).

Still in this data set, the particulars now being: 25 °C.
Compound `CCCCCCCCC(C(=O)O)C(=O)O` showed a solubility of 1.2 mM (≈ 260 µg/mL). Compound `O=C(O)c1ccccc1Br` displayed a solubility of 9.23 mM (≈ 1860 µg/mL).

Compound `COc1ccc(C=CC(=O)O)cc1` showed a solubility of 5.15 mM (≈ 918 µg/mL). Regarding `CC(C)c1ccc(C(=O)O)cc1`, the solubility is 0.92 mM (≈ 151 µg/mL). Turning to `CC(=O)Nc1ccc([N+](=O)[O-])cc1`, the solubility stood at 12.2 mM (≈ 2200 µg/mL). For `O=C(O)/C=C/c1ccc2c(c1)OCO2`, the solubility was 0.141 mM (≈ 27 µg/mL).

As to `O=C1c2ccccc2C(=O)c2cc(O)ccc21`, the solubility amounted to 0.00491 mM (≈ 1.1 µg/mL). As for `O=C(O)c1ccc(I)cc1`, the solubility was found to be 0.109 mM (≈ 27 µg/mL).

In turn, `O=C(O)C=Cc1cccc(Br)c1` returned a solubility of 2.31 mM (≈ 525 µg/mL). The compound `Cc1cccc(S(N)(=O)=O)c1` had a solubility of 45.6 mM (≈ 7810 µg/mL).

`O=C1c2ccc(O)cc2C(=O)c2ccc(O)cc21` returned a solubility of 0.00129 mM (≈ 0.31 µg/mL).

The values are drawn from the OPERA property sets (Mansouri et al. 2018).
